The values below come from publication PMC11768667 (2025).

Test [1] deals with FKB-3 (DNA, aptamer) CGAGCATAGGCAGAACTTACCACACAGCGTACCTCGTAGCCATGCGCCGTTGGGTCGTAAGAGCGAGTCATTC
As to the kind of experiment: gel elution assay. Particulars: 20 mM NaCl, 0.5 mM MgCl2; for binding: 10 mM Tris-HCl pH 7.4, displacement from cDNA-bio.

Test [2] concerns FKB-2 (DNA, aptamer) CGAGCATAGGCAGAACTTACCACGAGGACGGGTCAGTGCGTTAGGTGCCCACAGTCGTAAGAGCGAGTCATTC
As to the kind of experiment: gel elution assay. As to conditions: 20 mM NaCl, 0.5 mM MgCl2; for binding: 10 mM Tris-HCl pH 7.4, displacement from cDNA-bio.

Test [3] deals with FKB-1 (DNA, aptamer) CGAGCATAGGCAGAACTTACCACCAAGTGAGGGTGTACGGTGGCTTACGCTTGGTCGTAAGAGCGAGTCATTC
As to the kind of experiment: gel elution assay. As to conditions: 20 mM NaCl, 0.5 mM MgCl2; for binding: 10 mM Tris-HCl pH 7.4, displacement from cDNA-bio, tested at 100 µM.

Test [4] deals with FKB-S-5'FAM (DNA, aptamer) CTTACCACCAAGTGAGGGTGTACGGTGGCTTACGCTTGGTCGTAAG
In words: microscale thermophoresis. As to conditions: 20 mM NaCl, 0.5 mM MgCl2; 10 mM Tris-HCl pH 7.4, 5% DMSO, 0.05% Tween-20. For orientation: In MST a laser heats a spot of the sample, and binding alters the fluorescence response.

Test [5] has as its system FKB-S (DNA, aptamer) CTTACCACCAAGTGAGGGTGTACGGTGGCTTACGCTTGGTCGTAAG
In words: AuNP aggregation colorimetric assay. Particulars: NaCl (20 µL of 400 mM added after compound), room temperature, indirect readout.

Test [6] deals with FKB-1-5'FAM (DNA, aptamer) CGAGCATAGGCAGAACTTACCACCAAGTGAGGGTGTACGGTGGCTTACGCTTGGTCGTAAGAGCGAGTCATTC
In words: microscale thermophoresis. As to conditions: 20 mM NaCl, 0.5 mM MgCl2; 10 mM Tris-HCl pH 7.4, 5% DMSO, 0.05% Tween-20.

The mark [7] stands for this setting: 10 mM Tris-HCl pH 7.4, room temperature, displaced from cDNA-bio, apparent.

With `COc1cc(O)c(C(=O)/C=C/c2ccc(O)cc2)c(OC)c1`, the binding entry is given as “weak” in test [1], “weak” in test [2], “no” in test [3] and “weak” in test [4].

Consider `COc1cc(O)c(C(=O)/C=C/c2ccccc2)c(OC)c1`, for which the binding entry in test [5] (FKB 0-5 μM) was “yes”. Moreover, the KD in test [1] (setting [7]) came out at 40500 nM; in test [2] (setting [7]), 9970 nM; in test [3] (setting [7]), 2870 nM; in test [6] it was 1450 nM; in test [4], 280 nM.

Turning to `COc1ccc(/C=C/C(=O)c2c(O)cc(OC)cc2OC)cc1`, the binding entry in test [1] is listed as “weak”; in test [2], “weak”; in test [3] it was “no”; in test [4], “weak”.

For the molecule `O=C(/C=C/c1ccc(O)cc1)c1ccc(O)cc1O`, the binding result in test [3] is reported as “no”.

As to `O=C1c2cccc(O)c2C(=O)c2c(O)cc(CO)cc21`, in test [3], the binding result is on record as “no”.

On to `O=c1c(O)c(-c2cc(O)c(O)c(O)c2)oc2cc(O)cc(O)c12`, for which the binding result in test [5] and in test [3] was “no” each time.

Take `O=c1c(O)c(-c2ccc(O)c(O)c2)oc2cc(O)cc(O)c12`: the binding result in test [5] and in test [3] was “no” in each case.
